According to patent publication US7671054B1, “Reverse-turn mimetics and method relating thereto” (Choongwae Pharma Corporation, priority 2001, dated 2010):
Read-outs that look alike come from different tables or passages of the source.

Assays:
HCT116 cells = assay: Growth inhibition assay (MTS); format: cell-based; conditions: Homo sapiens, Table 5, HCT116 cells, 48 hours treatment, MTS, read-out: Growth Inhibition (GI50, uM) HCT116
Protocol: (§1) SW480 or HCT116 cells were placed into 96 well microplate (10^4cells/well) and incubated for 24 hours at 37° C. 20 μl of [3-(4,5-dimethylthiazol-2-yl)-5-(3-carboxyphenyl)-2-(4-sulfophenyl)-2H-tetrazolium, inner salt](MTS) solution (Promega) was added into each well and the absorbance after 2 hour incubation at 37° C. (negative control) was read. And then, the cells were treated with TCF4 compound at various concentrations for 48 hours. 20 μl of MTS solution (Promega) was added into each well and incubated for 2 hour at 37° C. Cell viability was measured by reading the absorbance at 490 nm using a microplate reader (Molecular device) and cytotoxicity of a compound at each concentration was calculated.
as §1, with “a test” for “TCF4”

SW480 cells = assay: Growth inhibition assay (MTS); format: cell-based; conditions: Homo sapiens, Table 5, SW480 cells
Protocol: as §1
as §1, with “a test” for “TCF4”

[1] = SW480, 48 h, 48 hours treatment, MTS, read-out: Growth Inhibition (GI50, uM) SW480

| SMILES | GI50 (HCT116 cells; HCT-116, 48 h) [µM] | GI50 (SW480 cells; [1]) [µM] | GI50 (HCT116 cells; HCT-116) [µM] | GI50 (SW480 cells; the cell prints nM, read-out: Growth Inhibition (GI50) SW480) [µM] | GI50 (SW480 cells; 48 hours treatment, MTS, read-out: Growth Inhibition (GI50, uM) SW480) [µM] |
| --- | --- | --- | --- | --- | --- |
| CC(C)N(C)c1cc([C@@H](C)N2C[C@H]3N(C(=O)CN(C)N3C(=O)NCc3ccccc3)[C@@H](Cc3ccc(O)cc3)C2=O)ccc1F [Compound 39] | 19.7 ± 3.3 | 22.8 ± 6.5 | – | – | – |
| CN1CC(=O)N2[C@@H](Cc3ccc(O)cc3)C(=O)N(Cc3cccc(N4CCCC4)c3)C[C@@H]2N1C(=O)NCc1ccccc1 [Compound 40] | 5.8 ± 0.4 | 6.4 ± 0.5 | – | – | – |
| CCN(CC)c1cc(F)ccc1[C@H](C)N1C[C@H]2N(C(=O)CN(C)N2C(=O)NCc2ccccc2)[C@@H](Cc2ccc(O)cc2)C1=O [Compound 41] | 14.7 ± 2.6 | 34.4 ± 9.6 | – | – | – |
| CC(C)N(C)c1cccc([C@@H](C)N2C[C@H]3N(C(=O)CN(C)N3C(=O)NCc3ccccc3)[C@@H](Cc3ccc(O)cc3)C2=O)c1 [Compound 42] | 10.8 | 24.7 | – | – | – |
| CN(C)c1ccc(C[C@H]2C(=O)N(Cc3cccc4ccccc34)C[C@H]3N2C(=O)CN(C)N3C(=O)NCc2ccccc2)cc1 [Compound 43] | 39.1 | > 50 | – | – | – |
| CN1CC(=O)N2[C@@H](Cc3ccc(NC=O)cc3)C(=O)N(Cc3cccc4ccccc34)C[C@@H]2N1C(=O)NCc1ccccc1 [Compound 44] | 4.2 ± 0.5 | 3.8 ± 0.4 | – | – | – |
| C[C@H]1[C@@H]2N(C(=O)CN(C)N2C(=O)NCc2ccccc2)[C@@H](Cc2ccc(O)cc2)C(=O)N1Cc1ccc(F)cc1F [Compound 45] | 2.9 ± 0.4 | 2.5 ± 0.2 | – | – | – |
| CN1CC(=O)N2[C@@H](Cc3ccc(O)cc3)C(=O)N(Cc3cccc4[nH]ncc34)C[C@@H]2N1C(=O)NCc1ccccc1 [Compound 47] | 12.2 | 6.2 | – | – | – |
| CN1CC(=O)N2[C@@H](Cc3ccc(O)cc3)C(=O)N(Cc3cccc(N4CCCCC4)c3)C[C@@H]2N1C(=O)NCc1ccccc1 [Compound 48] | 15.5 ± 2.3 | 20.7 ± 2.8 | – | – | – |
| CN1CC(=O)N2[C@@H](Cc3ccc(O)cc3)C(=O)N(Cc3cccc4cnn(Cc5ccccc5[N+](=O)[O-])c34)C[C@@H]2N1C(=O)NCc1ccccc1 [Compound 51] | 2.8 | 3 ± 0.1 | – | – | – |
| CN1CC(=O)N2[C@@H](Cc3ccc(O)cc3)C(=O)N(Cc3cccc4nnn(C)c34)C[C@@H]2N1C(=O)NCc1ccccc1 [Compound 52] | 9.7 ± 0.9 | 19.3 ± 2.1 | – | – | – |
| CN1CC(=O)N2[C@@H](Cc3ccc(O)cc3)C(=O)N(Cc3cccc4c3nnn4C)C[C@@H]2N1C(=O)NCc1ccccc1 [Compound 53] | 4.7 ± 0.4 | 11.4 ± 0.9 | – | – | – |
| CN1CC(=O)N2[C@@H](Cc3ccc(O)cc3)C(=O)N(Cc3ccc4ncsc4c3)C[C@@H]2N1C(=O)NCc1ccccc1 [Compound 54] | 4.9 ± 0.7 | 7.1 ± 0.5 | – | – | – |
| CN(C)c1cccc(CN2C[C@H]3N(C(=O)CN(C)N3C(=O)NCc3ccccc3)[C@@H](Cc3ccc(O)cc3)C2=O)c1 [Compound 55] | 4.1 ± 0.7 | 4.6 ± 0.5 | – | – | – |
| CN(Cc1ccccc1)c1cccc(CN2C[C@H]3N(C(=O)CN(C)N3C(=O)NCc3ccccc3)[C@@H](Cc3ccc(O)cc3)C2=O)c1 [Compound 56] | 9.1 | 10.8 | – | – | – |
| C[C@H]1[C@H]2N(C(=O)CN(C)N2C(=O)NCc2ccccc2)[C@@H](Cc2ccc(O)cc2)C(=O)N1Cc1ccc(Cl)c(N(C)C)c1 [Compound 57] | 5.1 ± 0.3 | 3.1 ± 0.3 | – | – | – |
| CCOP(=O)(CC(=O)Nc1ccc(C[C@H]2C(=O)N(Cc3cccc4ccccc34)C[C@H]3N2C(=O)CN(C)N3C(=O)NCc2ccccc2)cc1)OCC [Compound 59] | – | – | 55.1 ± 33.7 | > 0.05 | – |
| CN1CC(=O)N2[C@@H](Cc3ccc(O)cc3)C(=O)N(Cc3cccc4ccccc34)C[C@@H]2N1C(=O)NCc1ccccc1 [Compound 60] | 6.3 ± 2.6 | 8.3 ± 1.4 | – | – | – |
| CN1CC(=O)N2[C@@H](Cc3ccc(O)cc3)C(=O)N(Cc3ccc4cnn(Cc5ccccc5N)c4c3)C[C@@H]2N1C(=O)NCc1ccccc1 [Compound 61] | 3.6 ± 0.3 | 11.3 ± 6 | – | – | – |
| CN(C)CCn1ncc2cccc(CN3C[C@H]4N(C(=O)CN(C)N4C(=O)NCc4ccccc4)[C@@H](Cc4ccc(O)cc4)C3=O)c21 [Compound 62] | 23.5 ± 2.7 | 35.3 ± 4.6 | – | – | – |

| SMILES | GI50 (HCT116 cells; HCT-116, 48 h) [µM] | GI50 (SW480 cells; [1]) [µM] | GI50 (HCT116 cells; HCT-116) [µM] | GI50 (SW480 cells; the cell prints nM, read-out: Growth Inhibition (GI50) SW480) [µM] | GI50 (SW480 cells; 48 hours treatment, MTS, read-out: Growth Inhibition (GI50, uM) SW480) [µM] |
| --- | --- | --- | --- | --- | --- |
| CN1CC(=O)N2[C@@H](Cc3ccc(O)cc3)C(=O)N(Cc3cccc4c3cnn4Cc3ccccc3N)C[C@@H]2N1C(=O)NCc1ccccc1 [Compound 63] | 1.3 ± 0.1 | 18.8 ± 4.8 | – | – | – |
| CN1CC(=O)N2[C@@H](Cc3ccc(O)cc3)C(=O)N(Cc3ccc4cn[nH]c4c3)C[C@@H]2N1C(=O)NCc1ccccc1 [Compound 64] | 19 ± 1.6 | 12 ± 0.7 | – | – | – |
| CN(Cc1ccccc1N)c1cccc(CN2C[C@H]3N(C(=O)CN(C)N3C(=O)NCc3ccccc3)[C@@H](Cc3ccc(O)cc3)C2=O)c1 [Compound 65] | 4.7 | 7.3 | – | – | – |
| CN1CC(=O)N2[C@@H](Cc3ccc(O)cc3)C(=O)N(Cc3cccc4cn(Cc5cccc(N)c5)nc34)C[C@@H]2N1C(=O)NCc1ccccc1 [Compound 66] | 5.8 ± 0.3 | 3 ± 0.3 | – | – | – |
| CN1CC(=O)N2[C@@H](Cc3ccc(O)cc3)C(=O)N(Cc3cccc4cnn(Cc5cccc(N)c5)c34)C[C@@H]2N1C(=O)NCc1ccccc1 [Compound 67] | 0.3 ± 0.03 | 0.6 ± 0.2 | – | – | – |
| C#CCn1ncc2ccc(CN3C[C@H]4N(C(=O)CN(C)N4C(=O)NCc4ccccc4)[C@@H](Cc4ccc(O)cc4)C3=O)cc21 [Compound 68] | 3.8 ± 0.6 | 3.7 ± 0.2 | – | – | – |
| CN1CC(=O)N2[C@@H](Cc3ccc(O)cc3)C(=O)N(Cc3cccc4cnn(CCN5CCOCC5)c34)C[C@@H]2N1C(=O)NCc1ccccc1 [Compound 69] | 9.7 ± 1 | 17.9 ± 3.1 | – | – | – |
| CN1CC(=O)N2[C@@H](Cc3ccc(O)cc3)C(=O)N(Cc3ccc4cccnc4c3)C[C@@H]2N1C(=O)NCc1ccccc1 [Compound 70] | 7.2 ± 0.7 | 7.4 ± 0.6 | – | – | – |
| C#CCn1cc2c(CN3C[C@H]4N(C(=O)CN(C)N4C(=O)NCc4ccccc4)[C@@H](Cc4ccc(O)cc4)C3=O)cccc2n1 [Compound 71] | 3.6 ± 0.7 | 4.6 ± 0.5 | – | – | – |
| CN1CC(=O)N2[C@@H](Cc3ccc(O)cc3)C(=O)N(Cc3ccccc3N3CCOCC3)C[C@@H]2N1C(=O)NCc1ccccc1 [Compound 72] | 10.3 ± 1.6 | 10.9 ± 0.6 | – | – | – |
| COC(=O)c1ccccc1Cn1ncc2c(CN3C[C@H]4N(C(=O)CN(C)N4C(=O)NCc4ccccc4)[C@@H](Cc4ccc(O)cc4)C3=O)cccc21 [Compound 74] | 2.4 ± 0.3 | 1.3 ± 0.4 | – | – | – |
| CN1CC(=O)N2[C@@H](Cc3ccc(O)cc3)C(=O)N(Cc3cccc4nn(CCN5CCOCC5)cc34)C[C@@H]2N1C(=O)NCc1ccccc1 [Compound 75] | 4.5 ± 0.4 | 2 ± 0.1 | – | – | – |
| CN1CC(=O)N2[C@@H](Cc3ccc(O)cc3)C(=O)N(Cc3cccc4cnn(Cc5ccc(N)cc5)c34)C[C@@H]2N1C(=O)NCc1ccccc1 [Compound 78] | 3.7 ± 0.3 | 2.2 ± 0.2 | – | – | – |
| C#CCn1cc2cccc(CN3C[C@H]4N(C(=O)CN(C)N4C(=O)NCc4ccccc4)[C@@H](Cc4ccc(O)cc4)C3=O)c2n1 [Compound 79] | 5.2 ± 0.4 | 2.8 ± 0.2 | – | – | – |
| C#CCNC(=O)c1ccccc1Cn1ncc2c(CN3C[C@H]4N(C(=O)CN(C)N4C(=O)NCc4ccccc4)[C@@H](Cc4ccc(O)cc4)C3=O)cccc21 [Compound 80] | 3.9 ± 0.6 | 4 ± 0.6 | – | – | – |
| C#CCN1CC(=O)N2[C@@H](Cc3ccc(O)cc3)C(=O)N(Cc3ccc(Cl)c(N(C)C)c3)C[C@@H]2N1C(=O)NCc1ccccc1 [Compound 83] | 2.5 ± 0.1 | 2.3 ± 0.3 | – | – | – |
| C#CCN1CC(=O)N2[C@@H](Cc3ccc(O)cc3)C(=O)N(Cc3ccc(F)cc3F)[C@@H](C)[C@@H]2N1C(=O)NCc1ccccc1 [Compound 84] | – | – | 9.9 ± 1 | – | 8.4 ± 1.1 |
| CN1CC(=O)N2[C@@H]([C@H](O)c3ccc(O)cc3)C(=O)N(Cc3ccc(F)cc3F)C[C@@H]2N1C(=O)NCc1ccccc1 [Compound 86] | 6.5 ± 0.6 | 9.6 ± 1.6 | – | – | – |
| C#CCN1CC(=O)N2[C@@H](Cc3ccc(O)cc3)C(=O)N(Cc3cccc4cccnc34)C[C@@H]2N1C(=O)NCc1ccccc1 [Compound 87] | 0.5 ± 0.1 | 0.6 ± 0.2 | – | – | – |
